# Measured values: publication PMC11210663 (Emerging Infectious Diseases, 2024)
# pIC50: −log10 of the molar value.
# System: influenza A(H1N1)pdm09 viruses tested during the 2022–23 influenza season
# Type: biochemical, influenza A(H1N1)pdm09 virus
# Conditions: read-out: NA inhibitors median IC50 2022–2023 (reference)
smiles,measurement,value
"CCC(CC)[C@H](NC(C)=O)[C@@H]1[C@H](O)[C@@H](C(=O)O)C[C@H]1N=C(N)N [Peramivir, peramivir]",pIC50,10.15
